Results published in ChEMBL document CHEMBL1201862, “PubChem BioAssay data set” (2004).
Active and inactive are the calls of the source.

Tests used:
[1] = molecular target: T1, Lysosomal acid glucosylceramidase (Homo sapiens, UniProt P04062); test: Dose response cell-based high throughput screening assay to identify enhancers of beta-glucosidase activity. [Related pubchem assays: 784 ]; assay type: functional
T1 sequence (P04062 whole entry): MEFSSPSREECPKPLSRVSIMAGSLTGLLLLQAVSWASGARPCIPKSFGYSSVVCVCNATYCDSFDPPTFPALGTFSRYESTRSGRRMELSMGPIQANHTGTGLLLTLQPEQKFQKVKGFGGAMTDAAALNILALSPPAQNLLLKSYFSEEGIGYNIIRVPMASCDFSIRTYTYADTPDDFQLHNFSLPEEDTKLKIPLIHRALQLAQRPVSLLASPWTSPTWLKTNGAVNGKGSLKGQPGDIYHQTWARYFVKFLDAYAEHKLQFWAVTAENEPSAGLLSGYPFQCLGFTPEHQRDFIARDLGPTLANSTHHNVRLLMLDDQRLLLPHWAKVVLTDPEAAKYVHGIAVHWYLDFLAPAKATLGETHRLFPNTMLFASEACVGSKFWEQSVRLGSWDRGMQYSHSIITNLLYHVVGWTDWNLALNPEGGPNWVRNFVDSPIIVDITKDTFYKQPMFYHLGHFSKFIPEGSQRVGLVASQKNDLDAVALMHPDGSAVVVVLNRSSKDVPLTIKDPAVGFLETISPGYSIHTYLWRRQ

[2] = A cytotoxicity screen of small molecule inhibitors of the PhoP region in Salmonella typhi identified in the primary screen. [Related pubchem assays: 1850, 1864, 1985 ]; assay type: functional
[3] = molecular target: DNA dC->dU-editing enzyme APOBEC-3G (Homo sapiens, UniProt Q9HC16); assay type: functional;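 note: Dose-response counterscreen measuring inhibition of APOBEC3G DNA deaminase activity, run while confirming APOBEC3A inhibitors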
DNA dC->dU-editing enzyme APOBEC-3G, sequence (Q9HC16 whole entry): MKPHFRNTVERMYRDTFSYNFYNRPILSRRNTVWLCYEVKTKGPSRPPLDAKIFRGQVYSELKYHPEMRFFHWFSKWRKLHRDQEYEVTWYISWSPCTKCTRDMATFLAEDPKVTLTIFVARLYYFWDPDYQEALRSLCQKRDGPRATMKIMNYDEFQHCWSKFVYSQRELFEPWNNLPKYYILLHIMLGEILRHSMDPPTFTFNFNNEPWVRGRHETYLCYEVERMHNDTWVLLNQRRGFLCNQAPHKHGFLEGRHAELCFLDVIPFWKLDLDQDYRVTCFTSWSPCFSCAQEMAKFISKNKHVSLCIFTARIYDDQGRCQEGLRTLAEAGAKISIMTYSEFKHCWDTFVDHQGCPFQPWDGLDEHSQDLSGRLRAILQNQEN

[4] = molecular target: DNA dC->dU-editing enzyme APOBEC-3A (Homo sapiens, UniProt P31941); test: Dose Response confirmation of small molecule APOBEC3A DNA Deaminase Inhibitors via a fluorescence-based single-stranded DNA deaminase assay. [Related pubchem assays (depositor defined):AID493011, AID493024]; assay type: functional
DNA dC->dU-editing enzyme APOBEC-3A, sequence (P31941 whole entry): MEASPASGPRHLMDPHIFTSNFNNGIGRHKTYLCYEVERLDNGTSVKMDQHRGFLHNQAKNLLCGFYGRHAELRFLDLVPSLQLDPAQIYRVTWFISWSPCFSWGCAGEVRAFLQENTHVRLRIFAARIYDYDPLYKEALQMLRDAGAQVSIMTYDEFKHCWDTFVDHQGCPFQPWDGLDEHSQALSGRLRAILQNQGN

[5] = molecular target: T2, Voltage-gated N-type calcium channel alpha-1B subunit/Amyloid beta A4 precursor protein-binding family A member 1 (Homo sapiens, UniProt Q00975+Q02410); assay type: protein assay
[6] = molecular target: T2, Voltage-gated N-type calcium channel alpha-1B subunit/Amyloid beta A4 precursor protein-binding family A member 1; assay type: protein assay; remark: listed apart in the source
Cytochrome P450 3A4 = Cytochrome P450 3A4 (Homo sapiens, UniProt P08684); details: Potency;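 note: confirmatory qHTS run detecting inhibitors and substrates of CYP3A4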
Cytochrome P450 3A4, sequence (P08684 whole entry): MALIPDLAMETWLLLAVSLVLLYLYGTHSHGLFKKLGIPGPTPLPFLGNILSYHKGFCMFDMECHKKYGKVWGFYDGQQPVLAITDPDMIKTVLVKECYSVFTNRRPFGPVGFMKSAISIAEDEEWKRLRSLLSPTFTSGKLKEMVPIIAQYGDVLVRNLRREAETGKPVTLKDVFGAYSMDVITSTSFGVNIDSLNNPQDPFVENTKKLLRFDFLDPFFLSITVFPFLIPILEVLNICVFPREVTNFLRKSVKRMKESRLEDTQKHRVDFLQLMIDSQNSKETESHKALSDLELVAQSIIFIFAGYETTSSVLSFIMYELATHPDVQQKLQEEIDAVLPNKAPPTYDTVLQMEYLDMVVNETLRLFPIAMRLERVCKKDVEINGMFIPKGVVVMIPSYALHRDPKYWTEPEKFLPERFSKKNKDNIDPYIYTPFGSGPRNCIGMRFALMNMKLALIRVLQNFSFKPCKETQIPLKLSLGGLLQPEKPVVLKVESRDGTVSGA

Bcl-2-like protein 10 = molecular target: T3, Bcl-2-like protein 10 (Homo sapiens, UniProt Q9HD36); test: displacers of TR3 peptide from Bcl-B, primary screen, selectivity assay for Bfl-1 inhibitor project, biochemical, fluorescence polarization, FITC-TR3 peptide (AID 748);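 note: fluorescence polarization from a fluorescein-labelled TR3 peptide binding purified Bcl-B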
T3 sequence (Q9HD36 whole entry): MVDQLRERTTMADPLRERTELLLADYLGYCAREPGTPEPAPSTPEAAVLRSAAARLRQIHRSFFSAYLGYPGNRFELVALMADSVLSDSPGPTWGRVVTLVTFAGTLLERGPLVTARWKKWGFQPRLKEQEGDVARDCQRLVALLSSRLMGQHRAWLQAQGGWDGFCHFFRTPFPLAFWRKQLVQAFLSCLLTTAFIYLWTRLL

[7] = molecular target: T4, RNA-binding protein pos-1 (Caenorhabditis elegans, UniProt G5EF15); test: inhibitors of POS-1/mex-3 RNA binding, dose response, biochemical, fluorescence polarization (AID 1964);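 note: purified POS-1 fused to maltose binding protein made in E. coli; potency of compounds blocking POS-1 binding to fluorescent RNA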
T4 sequence (G5EF15 whole entry): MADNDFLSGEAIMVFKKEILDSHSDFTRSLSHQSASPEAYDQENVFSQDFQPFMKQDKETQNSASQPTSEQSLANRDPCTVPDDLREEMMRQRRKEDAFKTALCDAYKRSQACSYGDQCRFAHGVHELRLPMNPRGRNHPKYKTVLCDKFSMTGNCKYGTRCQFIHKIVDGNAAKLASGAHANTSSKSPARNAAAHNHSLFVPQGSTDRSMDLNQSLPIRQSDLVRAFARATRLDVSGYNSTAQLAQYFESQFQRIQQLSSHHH

[8] = molecular target: T5, Zinc finger protein mex-5 (Caenorhabditis elegans, UniProt Q9XUB2); test: MEX-5/TCR-2 RNA interaction inhibitors, dose response, biochemical, C. elegans, fluorescence polarization (AID 1960)
T5 sequence (Q9XUB2 whole entry): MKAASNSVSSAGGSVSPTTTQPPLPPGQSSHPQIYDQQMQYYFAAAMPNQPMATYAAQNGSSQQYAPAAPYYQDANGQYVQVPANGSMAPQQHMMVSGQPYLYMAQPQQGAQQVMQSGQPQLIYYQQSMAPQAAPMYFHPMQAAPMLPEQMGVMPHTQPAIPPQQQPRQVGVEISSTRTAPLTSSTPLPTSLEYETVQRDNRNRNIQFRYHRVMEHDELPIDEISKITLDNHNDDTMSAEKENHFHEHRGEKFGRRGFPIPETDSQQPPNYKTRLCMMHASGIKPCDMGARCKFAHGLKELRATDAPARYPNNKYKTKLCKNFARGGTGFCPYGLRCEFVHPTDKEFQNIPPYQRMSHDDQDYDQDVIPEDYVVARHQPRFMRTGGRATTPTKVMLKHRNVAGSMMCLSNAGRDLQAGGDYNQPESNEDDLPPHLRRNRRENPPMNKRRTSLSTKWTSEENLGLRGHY

[9] = HEp-2 cell cytotoxicity, dose response, cytotoxicity control for RSV inhibitor project, HTS (AID 2410); assay type: functional; details: human respiratory syncytial virus
[10] = THP-1 cell cytotoxicity, dose response, cytotoxicity control for non-replicating M. tuberculosis project (AID 489025); assay type: functional
[11] = HepG2 cell cytotoxicity, dose response, cytotoxicity control for non-replicating M. tuberculosis project (AID 489018); assay type: functional; details: Mycobacterium tuberculosis
cells = assay type: functional
[12] = microbe, parasite or virus in culture; assay type: functional; details: Mycobacterium tuberculosis
[13] = molecular target: T6, Alkaline phosphatase, tissue-nonspecific isozyme (Homo sapiens, UniProt P05186); test: TNAP enzyme activators, dose response, selectivity assay for human IAP activator project, biochemical, TNAP isozyme, human IAP uHTS hits (AID 488886); assay type: functional;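 note: potency of compounds raising TNAP activity as a selectivity check on IAP activators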
T6 sequence (P05186 whole entry): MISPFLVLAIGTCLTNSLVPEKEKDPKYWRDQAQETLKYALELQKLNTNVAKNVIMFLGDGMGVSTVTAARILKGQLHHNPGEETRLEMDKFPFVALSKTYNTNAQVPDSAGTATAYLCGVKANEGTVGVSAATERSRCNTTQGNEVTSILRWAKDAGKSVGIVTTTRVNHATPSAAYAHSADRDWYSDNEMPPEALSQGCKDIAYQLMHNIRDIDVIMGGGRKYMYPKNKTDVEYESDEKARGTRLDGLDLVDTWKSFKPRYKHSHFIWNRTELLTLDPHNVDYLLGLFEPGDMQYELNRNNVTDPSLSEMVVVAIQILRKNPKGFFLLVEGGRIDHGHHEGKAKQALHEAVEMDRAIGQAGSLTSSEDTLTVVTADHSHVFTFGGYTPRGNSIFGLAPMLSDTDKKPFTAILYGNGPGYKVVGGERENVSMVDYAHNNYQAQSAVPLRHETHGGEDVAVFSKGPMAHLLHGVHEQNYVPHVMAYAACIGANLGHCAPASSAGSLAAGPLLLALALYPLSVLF

[14] = molecular target: Intestinal-type alkaline phosphatase (Mus musculus, UniProt P24822); test: PubChem AID 488875; assay type: functional
Intestinal-type alkaline phosphatase (Mus musculus, UniProt P24822), sequence (P24822 whole entry): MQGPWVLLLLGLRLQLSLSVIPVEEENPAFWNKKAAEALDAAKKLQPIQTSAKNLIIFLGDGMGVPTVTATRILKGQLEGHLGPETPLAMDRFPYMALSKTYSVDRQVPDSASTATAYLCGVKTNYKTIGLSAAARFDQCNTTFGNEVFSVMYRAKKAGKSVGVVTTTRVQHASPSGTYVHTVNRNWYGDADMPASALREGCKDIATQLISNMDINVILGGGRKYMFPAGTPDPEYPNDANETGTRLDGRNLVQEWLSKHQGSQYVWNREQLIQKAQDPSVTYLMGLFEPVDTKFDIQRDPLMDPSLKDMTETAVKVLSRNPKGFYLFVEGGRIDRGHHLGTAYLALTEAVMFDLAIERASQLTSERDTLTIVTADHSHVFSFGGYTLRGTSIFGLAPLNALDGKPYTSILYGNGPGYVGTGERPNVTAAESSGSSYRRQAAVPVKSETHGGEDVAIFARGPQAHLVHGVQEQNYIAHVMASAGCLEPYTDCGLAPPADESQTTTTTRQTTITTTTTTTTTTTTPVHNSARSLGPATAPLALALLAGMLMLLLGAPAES

[15] = molecular target: T7, Intestinal-type alkaline phosphatase (Homo sapiens, UniProt P09923); test: human intestinal alkaline phosphatase activators, dose response, biochemical, luminescence, uHTS hits (AID 463120); assay type: functional
T7 sequence (P09923 whole entry): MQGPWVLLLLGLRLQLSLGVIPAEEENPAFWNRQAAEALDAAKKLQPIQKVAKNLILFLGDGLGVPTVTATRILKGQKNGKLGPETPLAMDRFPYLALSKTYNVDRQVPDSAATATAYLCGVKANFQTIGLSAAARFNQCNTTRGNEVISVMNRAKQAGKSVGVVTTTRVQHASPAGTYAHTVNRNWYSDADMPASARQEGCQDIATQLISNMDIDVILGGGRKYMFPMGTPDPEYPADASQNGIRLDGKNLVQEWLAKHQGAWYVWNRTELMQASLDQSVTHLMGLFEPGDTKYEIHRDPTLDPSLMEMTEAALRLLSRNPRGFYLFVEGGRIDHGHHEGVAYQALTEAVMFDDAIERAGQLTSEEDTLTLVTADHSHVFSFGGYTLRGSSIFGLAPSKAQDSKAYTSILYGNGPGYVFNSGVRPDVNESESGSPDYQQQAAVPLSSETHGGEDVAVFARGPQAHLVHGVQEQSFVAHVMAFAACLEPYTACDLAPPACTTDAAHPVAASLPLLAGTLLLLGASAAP

[16] = molecular target: T7, Intestinal-type alkaline phosphatase; test: human IAP activators, dose response, biochemical, luminescent, uHTS hits, set 2 (AID 488817); assay type: functional;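 note: potency of activators that raise enzyme activity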
[17] = molecular target: T8, Rac GTPase-activating protein 1 (Homo sapiens, UniProt Q9H0H5); test: MgcRacGAP GTPase-activating activity inhibitors, confirmation, biochemical, ADP Hunter fluorescence, primary and confirmatory (AID 624330); assay type: functional
T8 sequence (Q9H0H5 whole entry): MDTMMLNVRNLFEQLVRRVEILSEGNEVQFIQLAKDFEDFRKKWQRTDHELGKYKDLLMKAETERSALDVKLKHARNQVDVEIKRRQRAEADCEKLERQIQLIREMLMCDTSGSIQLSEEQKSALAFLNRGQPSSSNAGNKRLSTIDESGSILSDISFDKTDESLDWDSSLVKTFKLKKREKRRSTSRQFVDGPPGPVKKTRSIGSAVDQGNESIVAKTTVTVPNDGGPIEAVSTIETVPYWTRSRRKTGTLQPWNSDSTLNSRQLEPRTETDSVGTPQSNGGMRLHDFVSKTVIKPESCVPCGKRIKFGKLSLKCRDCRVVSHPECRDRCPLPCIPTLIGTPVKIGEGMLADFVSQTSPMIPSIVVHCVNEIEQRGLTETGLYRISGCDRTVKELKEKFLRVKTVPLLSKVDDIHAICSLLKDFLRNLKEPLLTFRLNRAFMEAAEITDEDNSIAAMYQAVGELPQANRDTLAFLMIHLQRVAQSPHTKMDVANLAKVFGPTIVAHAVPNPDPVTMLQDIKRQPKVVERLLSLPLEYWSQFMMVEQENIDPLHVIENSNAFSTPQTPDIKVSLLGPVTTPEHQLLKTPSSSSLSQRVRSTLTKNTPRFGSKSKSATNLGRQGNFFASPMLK

Bcl-2-related protein A1 [18] = molecular target: T9, Bcl-2-related protein A1 (Mus musculus, UniProt Q07440); test: Bfl-1 inhibitors blocking BH3 peptide binding, confirmation, biochemical, TR-FRET, mouse Bfl-1 (AID 621);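 note: TR-FRET binding of GST-Bfl-1 to FITC-labelled Bid peptide via terbium antibody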
T9 sequence (Q07440 whole entry): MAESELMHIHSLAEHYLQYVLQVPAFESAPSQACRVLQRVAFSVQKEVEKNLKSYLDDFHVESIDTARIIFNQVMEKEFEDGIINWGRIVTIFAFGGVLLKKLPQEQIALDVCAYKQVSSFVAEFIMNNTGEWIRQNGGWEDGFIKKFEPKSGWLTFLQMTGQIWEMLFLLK

[19] = molecular target: Heat shock cognate 71 kDa protein (Homo sapiens, UniProt P11142); test: In Vitro Hsc70 Dose Response Fluorescence Polarization Assay. [Related pubchem assays: 1072 ]
Heat shock cognate 71 kDa protein, sequence (P11142 whole entry): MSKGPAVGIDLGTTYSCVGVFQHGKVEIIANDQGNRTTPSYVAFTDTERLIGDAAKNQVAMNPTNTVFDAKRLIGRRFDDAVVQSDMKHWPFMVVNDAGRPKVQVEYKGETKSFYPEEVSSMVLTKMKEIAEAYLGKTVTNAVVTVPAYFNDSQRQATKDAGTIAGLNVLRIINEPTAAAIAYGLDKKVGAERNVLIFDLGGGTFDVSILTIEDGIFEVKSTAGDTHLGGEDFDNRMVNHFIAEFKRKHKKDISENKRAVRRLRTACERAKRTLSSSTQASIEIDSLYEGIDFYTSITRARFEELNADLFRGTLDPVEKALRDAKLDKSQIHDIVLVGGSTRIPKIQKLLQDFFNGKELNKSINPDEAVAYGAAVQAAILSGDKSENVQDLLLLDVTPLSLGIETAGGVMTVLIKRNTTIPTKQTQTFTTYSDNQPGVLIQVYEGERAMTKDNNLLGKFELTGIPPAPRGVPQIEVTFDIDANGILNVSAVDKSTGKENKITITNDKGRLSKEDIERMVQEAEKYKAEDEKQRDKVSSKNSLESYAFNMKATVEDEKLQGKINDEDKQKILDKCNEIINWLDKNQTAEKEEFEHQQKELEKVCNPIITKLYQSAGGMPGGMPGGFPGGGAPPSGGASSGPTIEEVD

[20] = molecular target: Glyceraldehyde-3-phosphate dehydrogenase (Homo sapiens, UniProt P04406)
Glyceraldehyde-3-phosphate dehydrogenase, sequence (P04406 whole entry): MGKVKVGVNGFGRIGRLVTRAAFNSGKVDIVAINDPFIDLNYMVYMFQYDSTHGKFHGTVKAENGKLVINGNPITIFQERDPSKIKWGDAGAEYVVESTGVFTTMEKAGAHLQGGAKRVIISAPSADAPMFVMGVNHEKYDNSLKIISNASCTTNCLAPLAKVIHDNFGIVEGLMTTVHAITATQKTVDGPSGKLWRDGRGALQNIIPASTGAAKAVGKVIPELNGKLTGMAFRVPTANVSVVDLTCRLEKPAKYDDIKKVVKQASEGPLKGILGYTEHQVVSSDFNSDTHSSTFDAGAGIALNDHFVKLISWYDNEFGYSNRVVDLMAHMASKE

Bcl-2-related protein A1 [21] = molecular target: T9, Bcl-2-related protein A1; test: Bfl-1 binding inhibitors, SAR follow-up, biochemical, fluorescence polarization (AID 1070)
[22] = molecular target: Heat shock 70 kDa protein 1A (Homo sapiens, UniProt P0DMV8); test: Hsp70 inhibitors, SAR follow-up, biochemical, fluorescence polarization (AID 1072)
Heat shock 70 kDa protein 1A, sequence (P0DMV8 whole entry): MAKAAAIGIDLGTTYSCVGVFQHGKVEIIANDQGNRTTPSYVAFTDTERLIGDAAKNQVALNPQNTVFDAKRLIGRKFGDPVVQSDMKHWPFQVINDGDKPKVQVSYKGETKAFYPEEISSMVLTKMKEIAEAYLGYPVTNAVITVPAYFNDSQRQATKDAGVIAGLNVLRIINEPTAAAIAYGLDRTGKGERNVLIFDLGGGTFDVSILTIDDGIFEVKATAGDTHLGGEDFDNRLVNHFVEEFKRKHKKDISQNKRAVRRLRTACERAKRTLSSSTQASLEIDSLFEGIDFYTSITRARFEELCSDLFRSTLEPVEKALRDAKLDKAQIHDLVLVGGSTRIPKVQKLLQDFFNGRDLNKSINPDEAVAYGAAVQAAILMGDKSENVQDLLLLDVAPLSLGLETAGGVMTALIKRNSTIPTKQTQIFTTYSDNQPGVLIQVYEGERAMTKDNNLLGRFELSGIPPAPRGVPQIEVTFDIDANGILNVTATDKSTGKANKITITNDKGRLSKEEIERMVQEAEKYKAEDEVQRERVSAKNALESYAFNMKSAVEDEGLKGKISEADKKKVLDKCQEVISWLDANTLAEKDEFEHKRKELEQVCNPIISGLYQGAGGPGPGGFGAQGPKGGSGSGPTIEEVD

COc1ccc(S(=O)(=O)N(CC(=O)NCC2CCCO2)c2ccccc2)cc1OC (configuration not stated)
EC50 [1]: > 50 µM (not active)

Cc1nc(C)c(-c2ccc(SCc3ccccc3C)nn2)s1
EC50 [2]: > 50 µM (active)

CCOC(=O)C[n+]1c(C)n(C)c2cc(Cl)c(Cl)cc21
IC50 [3]: 2.2 µM (active)
IC50 [4]: 2.26 µM (active)

N#CCC(=O)N/N=C/c1cn(Cc2ccc(Cl)c(Cl)c2)c2ccccc12
IC50 [5]: > 56.8 µM (not active)
IC50 [6]: > 50 µM (inactive)

CC1(C)CC2C1CCC1(C)OC2(C)CCC1O (configuration not stated) [3,7-EPOXYCARYOPHYLLAN-6-OL]
AC50 (Cytochrome P450 3A4): 25.1 µM (inconclusive)

N=c1c(C(=O)NCC2CCCO2)cc2c(=O)n3ccccc3nc2n1Cc1cccnc1 (configuration not stated)
IC50 (Bcl-2-like protein 10): > 25 µM (inactive)
EC50 [7]: 17.1 µM (active)
EC50 [8]: 12.2 µM (active)

CC(=O)N(CCC1(c2ccc(C)cc2)CCOC(C(C)C)C1)Cc1ccco1 (configuration not stated)
EC50 [2]: > 50 µM (active)

C=CCNCC(=O)N1N=C(c2ccc3ccccc3c2)CC1c1ccc(OC)cc1 (configuration not stated)
CC50 [9]: 14.9 µM (active)
CC50 [10]: 23.5 µM (active)
CC50 [11]: > 20 µM (active)
IC50 (cells): 18.1 µM (active)
CC50 [12]: 25.5 µM (active)

COC(=O)c1ccccc1NC(=O)c1cc[n+](C)cc1
IC50 [3]: 4.04 µM (active)
IC50 [4]: 3.62 µM (active)

O=C(NC1CCCCC1)NC1CCCCC1 [1,3-DICYCLOHEXYLUREA]
AC50 (Cytochrome P450 3A4): 3.16 µM (inconclusive)

O=C(N/N=C/c1c(F)cccc1Cl)c1cc(C2CC2)[nH]n1
EC50 [13]: 41.3 µM (active)
EC50 [14]: > 100 µM (inactive)
EC50 [15]: 21.5 µM (active)
EC50 [16]: 40.6 µM (active)

C=CCNS(=O)(=O)c1nc(C)c(Cl)c(C)c1C#N
IC50 (Bcl-2-like protein 10): > 100 µM (inactive)

Oc1cccc(Nc2ccccc2)c1
IC50 [17]: 62.6 µM (active)
AC50 (Cytochrome P450 3A4): 15.8 µM (inconclusive)

O=C1C(Cl)=C(N2CCN(CCOCCO)CC2)C(=O)N1c1ccc(Cl)c(Cl)c1
IC50 (Bcl-2-related protein A1 [18]): 0.42 µM (active)
IC50 [19]: > 100 µM (not active)
IC50 [20]: > 100 µM (not active)
IC50 (Bcl-2-related protein A1 [21]): 0.47 µM (active)
IC50 [22]: > 100 µM (not active)

COc1ccccc1N(C)S(=O)(=O)c1ccc(Cl)c(C(=O)NNC(=O)c2ccccc2O)c1
EC50 [13]: 26.5 µM (active)
EC50 [14]: > 100 µM (inactive)
EC50 [15]: 11.5 µM (active)
EC50 [16]: 15.7 µM (active)

Cc1cc(NS(=O)(=O)c2ccc(NC(=O)CCN3C(=O)c4ccccc4C3=O)cc2)no1
EC50 [1]: > 50 µM (not active)

CCOc1ccccc1-n1c(SCC(N)=O)nnc1-c1ccc(O)cc1
EC50 [1]: > 50 µM (not active)
